Here are results for one molecule from patent US5420010A, “Assay for evaluating inhibition of polymorphonuclear leukocyte elastase by N-substituted azetidinones” (Merck & Co., Inc., priority 1993, dated 1995).

In the assay the test system is HLE:α1 PI complexes. The assay is described as follows: Decrease in HLE:α1 PI complexes formed in A23187-stimulated human blood (ELISA). The conditions noted are these: after treatment with A23187, 100 μM, 30 minutes. The class given is cell-based. As for the experimental part:
The blood was then incubated for 30 minutes at 37° C. with 100 μM A23187 (CAL. BIOCHEM.) to stimulate the release of HLE from polymorphonuclear leukocytes. Platelet rich plasma was removed from each sample and prepared for the analysis of HLE:α1 PI complexes by ELISA, and Aα(1-21) by specific RIA.
(Compound B* differs from Compound B only by the substituent on the phenoxy.) A23187, 100 μM, was added and the blood was incubated for an additional 30 minutes. The amounts of reactivation product and α1 PI:elastase complex in the plasma were determined. The total concentration of α1 PI:Elastase complexes formed was 139 μM after treatment with A23187.
Background: In an ELISA, binding on a coated surface is turned into a signal by an enzyme label.

Regarding `CNc1ccc2oc(C[C@H]3O[C@@]4(CC[C@H]3C)O[C@H]([C@H](C)C(=O)c3ccc[nH]3)[C@H](C)C[C@H]4C)nc2c1C(=O)O` [Compound A23187], the “total concentration of α1 PI:Elastase complexes formed” value came to 139 µM.
